Reference: patent US20260256778A1 (AbbVie Inc., priority 2023, published 2026)
In brackets after ≈: the same amount, converted by molar mass. Read-outs that look alike come from different tables or passages of the source.

Legend:
[1] = tested on: inflammatory chemotactic proteins (CXCL9 and 10) and T-cell activation markers (IL12B and TNFSF9); test: Serum type 1 inflammation biomarkers in the Phase 2 study; format: in vivo, human
Description: (§1) No differences were apparent for active vs. stable subjects.

CXCL10 = test: Serum CXCL10 level in the Phase 2 study; format: in vivo, human; conditions: by week 2, all dose groups
Description: as §1

facial vitiligo area = test: 3D digital imaging substudy of facial vitiligo area (Example 3); format: in vivo, human; parameters: F-VASI, Wk 24: scale not given here; conditions: for percent reduction of facial vitiligo area from Baseline by 3D imaging / Treatment effect size, Cohen's d of 3D Imaging / Treatment effect size, Cohen's d of F-VASI: Week 24
Description: Specifically, multiple stereoscopic images were captured by a proprietary optical 3D scanner for a subset of patients in the referenced study. The data acquisition procedure and determination of vitiligo area using the 3D platform were as follows: • 1. Subject was scanned, acquiring 2D raw color images with real time feedback to generate 3D gray low-resolution model • 2. Full resolution color model generated and uploaded to cloud • 3. Web application opened by investigator, who manually selected threshold for each region of face. • 4. The detected vitiligo area was measured and results reported
To accomplish these objectives, twenty-seven subjects were enrolled into the 3D imaging substudy across 6 clinical sites. Twenty-one subjects had high quality 3D images available at Week 24 for analysis. Subjects who enrolled in the 3D digital imaging substudy were randomized as per the main protocol. The demographics, including Fitzpatrick skin types, and baseline disease characteristics in the 3D imaging substudy are provided in Table 9. With reference to Table 9, the demographics were in general consistent with the overall study population.
The quality and completeness of each scan was assessed by a visual inspection of the resulting 3D image by the technician and/or investigator, utilizing Wood's lamp visualization to set a threshold at Baseline, defined as the intensity value used to distinguish which 3D pixels within the image belong to the vitiligo area or to the normal skin area. The threshold value determined by the investigator at Baseline remained constant and applied to all post-baseline 3D images during the treatment period to reflect changes in the pigmentation. Each 3D image included 10 predefined anatomic regions of the face: forehead, left eye, right eye, left lateral cheek/temple, left middle cheek, nose, right middle cheek, right lateral cheek/temple, upper lip, and chin. Results are presented as the sum of vitiligo area measurement (cm^2) across all anatomic regions of the face.

[2] = Solubility of upadacitinib in different aqueous media at 37° C.; format: physicochemical
[3] = tested on: non-segmental vitiligo (NSV); conditions: for Percent CFB in F-VASI; LSMEAN (SE): Week 24, MMRM; for F-VASI 75; (%): Week 24, NRI
[4] = 22 mg QD, one representative subject, Baseline to Week 24
[5] = Placebo (N = 3) vs 6 mg (N = 7)
[6] = Placebo (N = 3) vs 11 mg (N = 6)
[7] = Placebo (N = 3) vs 22 mg (N = 5)
[8] = 6 mg QD, Week 24, change from baseline, 44 patients
[9] = 11 mg QD, Week 24, change from baseline, 45 patients
[10] = 22 mg QD, Week 24, change from baseline, 34 patients

Structure (SMILES): CC[C@@H]1CN(C(=O)NCC(F)(F)F)C[C@@H]1c1cnc2cnc3[nH]ccc3n12 [Upadacitinib, (3S,4R)-3-ethyl-4-(3H-imidazo[1,2-a]pyrrolo[2,3-e]pyrazin-8-yl)-N-(2,2,2-trifluoroethyl) pyrrolidine-1-carboxamide]
- Inhibition of type 1 inflammation biomarkers ([1]; 11 mg dose): maximal inhibition was achieved
- Change from baseline in CXCL9, CXCL10, IL12B and TNFSF9 ([1]; all upadacitinib doses, from week 2 through week 24, data not shown): Reductions from baseline were observed
- CXCL10 levels (CXCL10): reduced to those in healthy volunteers
- % Change Facial Vitiligo Area by 3D Imaging at Week 24, Mean (facial vitiligo area; 6 mg QD, N 7): −15.20%
- % Change Facial Vitiligo Area by 3D Imaging at Week 24, Median (facial vitiligo area; 6 mg QD, N 7): −9.85%
- percent reduction of facial vitiligo area from Baseline by 3D imaging (facial vitiligo area; 6 mg QD): 15.2%
- % Change Facial Vitiligo Area by 3D Imaging at Week 24, Mean (facial vitiligo area; 11 mg QD, N 6): −34.96%
- % Change Facial Vitiligo Area by 3D Imaging at Week 24, Median (facial vitiligo area; 11 mg QD, N 6): −37.38%
- percent reduction of facial vitiligo area from Baseline by 3D imaging (facial vitiligo area; 11 mg QD): 34.96%
- % Change Facial Vitiligo Area by 3D Imaging at Week 24, Mean (facial vitiligo area; 22 mg QD, N 5): −23.00%
- % Change Facial Vitiligo Area by 3D Imaging at Week 24, Median (facial vitiligo area; 22 mg QD, N 5): −27.2%
- percent reduction of facial vitiligo area from Baseline by 3D imaging (facial vitiligo area; 22 mg QD): 23%
- Cherry 3D imaging vitiligo area, % change (facial vitiligo area; [4]): −27.2%
- F-VASI, % change (facial vitiligo area; [4]): −24.62%
- Cherry 3D imaging vitiligo area, % change (facial vitiligo area; 22 mg QD, one representative subject, Baseline to Week 24, listed as upadacitinib): −27.20%
- Cherry 3D imaging vitiligo area, Wk 24 (facial vitiligo area; 22 mg QD, one representative subject, Fitzpatrick Type III, baseline 215.84): 157.13 cm^2
- F-VASI, Wk 24 (facial vitiligo area; 22 mg QD, one representative subject, baseline 1.3): 0.98
- percent change from baseline in vitiligo extent score (VES) by 3D imaging evaluation (facial vitiligo area; 11 and 22 mg versus placebo, preliminary): greater percent change from baseline
- Treatment effect size, Cohen's d of 3D Imaging (facial vitiligo area; [5]): 0.50
- Treatment effect size, Cohen's d of F-VASI (facial vitiligo area; [5]): 0.76
- Treatment effect size, Cohen's d of 3D Imaging (facial vitiligo area; [6]): > 0.8
- Treatment effect size, Cohen's d of F-VASI (facial vitiligo area; [6]): 0.13
- Treatment effect size, Cohen's d of 3D Imaging (facial vitiligo area; Placebo (N = 3) vs 11 mg (N = 6), listed as UPA): 1.36
- Treatment effect size, Cohen's d of 3D Imaging (facial vitiligo area; [7]): > 0.8
- Treatment effect size, Cohen's d of F-VASI (facial vitiligo area; [7]): 0.61
- Treatment effect size, Cohen's d of 3D Imaging (facial vitiligo area; Placebo (N = 3) vs 22 mg (N = 5), listed as UPA): 1.02
- solubility ([2]; 50 mM carbonate buffer, 37 °C, pH 9.11, aqueous buffer, thermodynamic from solid): 199 ± 6 µg/mL (≈ 523 µM)
- Solubility (in words) ([2]; at low pH): good solubility
- VitiQoL LS mean change ([3]; 6 mg): −7.5%
- Percent CFB in F-VASI; LSMEAN (SE) ([3]; 6 mg QD oral): −21.96 (5.162) Percent
- CFB in VitiQoL Total Score; LSMEAN (SE) ([3]; 6 mg QD, Week 24): −7.5 (2.27)
- Percent CFB in T-VASI; LSMEAN (SE) ([3]; 6 mg QD, Week 24): −13.87 (3.332) Percent
- T-VASI 50; (%) ([3]; 6 mg QD, Week 24): 6.1%
- Δ vs PBO, CFB in VitiQoL Total Score ([3]; 6 mg QD, Week 24): Δ = −1.9;
- Δ vs PBO, F-VASI 50 ([3]; 6 mg QD, Week 24): Δ = 6.6;
- Δ vs PBO, F-VASI 75 ([3]; 6 mg QD, Week 24): Δ = 6.9;
- Δ vs PBO, Percent CFB in F-VASI ([3]; 6 mg QD, Week 24): Δ = −7.60;
- Δ vs PBO, Percent CFB in T-VASI ([3]; 6 mg QD, Week 24): Δ = −7.45;
- Δ vs PBO, T-VASI 50 ([3]; 6 mg QD, Week 24): Δ = 3.7;
- Δ vs PBO, much better or a little better on PaGIC ([3]; 6 mg QD, Week 24): Δ = 14.3%
- Δ vs PBO, much better or a little better on PhGIC ([3]; 6 mg QD, Week 24): Δ = 18%
- Achieving much better or a little better on PaGIC (PaGIC-V score of 1 or 2), responders n ([3]; 6 mg QD, Week 24, N = 49): 17 n
- F-VASI 50; n ([3]; 6 mg QD, Week 24, N = 49): 8 n
- T-VASI 50; n ([3]; 6 mg QD, Week 24, N = 49): 3 n
- VNS score of 4 or 5, Responders n ([3]; 6 mg QD, Week 24, N = 49): 0 n
- F-VASI 75; n ([3]; 6 mg QD, Week 24, N = 49, NRI): 4 n
- F-VASI 75; (%) ([3]; 6 mg QD): 8.2%
- DLQI LS mean change ([3]; 6 mg QD, Week 24, change from baseline, 43 patients): −1.4%
- HADS Anxiety LS mean change [3, 8]: −0.7%
- HADS Depression LS mean change [3, 8]: 0.2%
- Percent CFB in F-VASI ([3]; 6 mg, Week 52, As Observed, N = 38): −52.7%
- Percent CFB in F-VASI ([3]; 6 mg, Week 52, Intent-to-Treat, MMRM/NRI-MI, N = 49): −52.3%
- Percent CFB in F-VASI; LSMEAN (SE) ([3]; 11 mg QD oral): −35.63 (5.297) Percent
- CFB in VitiQoL Total Score; LSMEAN (SE) ([3]; 11 mg QD, Week 24): −3.7 (2.30)
- Percent CFB in T-VASI; LSMEAN (SE) ([3]; 11 mg QD, Week 24): −17.26 (3.414) Percent
- T-VASI 50; (%) ([3]; 11 mg QD, Week 24): 6.4%
- Δ vs PBO, CFB in VitiQoL Total Score ([3]; 11 mg QD, Week 24): Δ = 1.9;
- Δ vs PBO, F-VASI 50 ([3]; 11 mg QD, Week 24): Δ = 29.3;
- Δ vs PBO, F-VASI 75 ([3]; 11 mg QD, Week 24): Δ = 17.8;
- Δ vs PBO, Percent CFB in F-VASI ([3]; 11 mg QD, Week 24): Δ = −21.27;
- Δ vs PBO, Percent CFB in T-VASI ([3]; 11 mg QD, Week 24): Δ = −10.84;
- Δ vs PBO, T-VASI 50 ([3]; 11 mg QD, Week 24): Δ = 3.8;
- Δ vs PBO, much better or a little better on PaGIC ([3]; 11 mg QD, Week 24): Δ = 38.5%
- Δ vs PBO, much better or a little better on PhGIC ([3]; 11 mg QD, Week 24): Δ = 37.8%
- Achieving much better or a little better on PaGIC (PaGIC-V score of 1 or 2), responders n ([3]; 11 mg QD, Week 24, N = 47): 26 n
- F-VASI 50; n ([3]; 11 mg QD, Week 24, N = 47): 18 n
- T-VASI 50; n ([3]; 11 mg QD, Week 24, N = 47): 3 n
- VNS score of 4 or 5, Responders n ([3]; 11 mg QD, Week 24, N = 47): 0 n
- F-VASI 75; n ([3]; 11 mg QD, Week 24, N = 47, NRI): 9 n
- F-VASI 75; (%) ([3]; 11 mg QD): 19.1%
- DLQI LS mean change ([3]; 11 mg QD, Week 24, change from baseline, 42 patients): −1.2%
- VitiQoL LS mean change ([3]; 11 mg QD, Week 24, change from baseline, 44 patients): −3.7%
- HADS Anxiety LS mean change [3, 9]: 0.0%
- HADS Depression LS mean change [3, 9]: −0.3%
- Percent CFB in F-VASI ([3]; 11 mg, Week 52, As Observed, N = 38): −64.8%
- Percent CFB in F-VASI ([3]; 11 mg, Week 52, Intent-to-Treat, MMRM/NRI-MI, N = 47): −62.8%
- Percent CFB in F-VASI; LSMEAN (SE) ([3]; 22 mg QD oral): −33.96 (5.793) Percent
- Percent CFB in T-VASI; LSMEAN (SE) ([3]; 22 mg QD, Week 24): −20.69 (3.731) Percent
- T-VASI 50; (%) ([3]; 22 mg QD, Week 24): 11.6%
- VNS score of 4 or 5, Responders (%) ([3]; 22 mg QD, Week 24): (11.6) %
- Δ vs PBO, CFB in VitiQoL Total Score ([3]; 22 mg QD, Week 24): Δ = −1.1;
- Δ vs PBO, F-VASI 50 ([3]; 22 mg QD, Week 24): Δ = 28.7;
- Δ vs PBO, F-VASI 75 ([3]; 22 mg QD, Week 24): Δ = 11.7;
- Δ vs PBO, Percent CFB in F-VASI ([3]; 22 mg QD, Week 24): Δ = −19.60;
- Δ vs PBO, Percent CFB in T-VASI ([3]; 22 mg QD, Week 24): Δ = −14.27;
- Δ vs PBO, T-VASI 50 ([3]; 22 mg QD, Week 24): Δ = 9.1;
- Δ vs PBO, much better or a little better on PaGIC ([3]; 22 mg QD, Week 24): Δ = 41.1%
- Δ vs PBO, much better or a little better on PhGIC ([3]; 22 mg QD, Week 24): Δ = 32%
- Achieving much better or a little better on PaGIC (PaGIC-V score of 1 or 2), responders n ([3]; 22 mg QD, Week 24, N = 43): 26 n
- F-VASI 50; n ([3]; 22 mg QD, Week 24, N = 43): 17 n
- T-VASI 50; n ([3]; 22 mg QD, Week 24, N = 43): 5 n
- VNS score of 4 or 5, Responders n ([3]; 22 mg QD, Week 24, N = 43): 5 n
- F-VASI 75; n ([3]; 22 mg QD, Week 24, N = 43, NRI): 6 n
- F-VASI 75; (%) ([3]; 22 mg QD): 14.0%
- HADS Anxiety LS mean change [3, 10]: −0.3%
- HADS Depression LS mean change [3, 10]: −0.1%
- VitiQoL LS mean change [3, 10]: −6.6%
- DLQI LS mean change ([3]; 22 mg QD, Week 24, change from baseline, 35 patients): −2.2%
- Percent CFB in F-VASI ([3]; 22 mg, Week 52, As Observed, N = 29): −60.8%
- Percent CFB in F-VASI ([3]; 22 mg, Week 52, Intent-to-Treat, MMRM/NRI-MI, N = 43): −59.2%
